Assay results reported in paper PMC6556873, “Rapid Covalent-Probe Discovery by Electrophile-Fragment Screening” (Journal of the American Chemical Society, 2019).
Like-named read-outs stand apart in the source and are kept apart here.

Legend:
OTUB2 (OTUB2A) = target: T1, OTUB2 (OTUB2A) (Homo sapiens, UniProt Q96DC9); set-up: Intact protein LC/MS covalent labelling, fragments in pools of five, 200 uM each, 4 °C; settings: 24 h, 4 °C, pool of five; 200 µM; covalent
T1 construct: full length residues 1-234, E. coli BL21(DE3)-R3, His tag removed by TEV, construct 27312 Da
T1 sequence (Q96DC9 1-234): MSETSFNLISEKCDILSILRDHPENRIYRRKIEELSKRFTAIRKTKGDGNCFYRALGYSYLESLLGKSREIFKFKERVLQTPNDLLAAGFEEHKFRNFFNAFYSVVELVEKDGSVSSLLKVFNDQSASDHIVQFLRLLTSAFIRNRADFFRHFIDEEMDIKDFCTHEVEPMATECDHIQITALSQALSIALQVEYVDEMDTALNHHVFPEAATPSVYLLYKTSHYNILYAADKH

BSA = target: T2, BSA (Bos taurus, UniProt P02769); set-up: Intact protein LC/MS covalent labelling, fragments in pools of five, 200 uM each, 4 °C; settings: 24 h, 4 °C, pool of five; 200 µM; covalent
T2 construct: gene ALB
T2 sequence (P02769 whole entry, the tested form may be a part): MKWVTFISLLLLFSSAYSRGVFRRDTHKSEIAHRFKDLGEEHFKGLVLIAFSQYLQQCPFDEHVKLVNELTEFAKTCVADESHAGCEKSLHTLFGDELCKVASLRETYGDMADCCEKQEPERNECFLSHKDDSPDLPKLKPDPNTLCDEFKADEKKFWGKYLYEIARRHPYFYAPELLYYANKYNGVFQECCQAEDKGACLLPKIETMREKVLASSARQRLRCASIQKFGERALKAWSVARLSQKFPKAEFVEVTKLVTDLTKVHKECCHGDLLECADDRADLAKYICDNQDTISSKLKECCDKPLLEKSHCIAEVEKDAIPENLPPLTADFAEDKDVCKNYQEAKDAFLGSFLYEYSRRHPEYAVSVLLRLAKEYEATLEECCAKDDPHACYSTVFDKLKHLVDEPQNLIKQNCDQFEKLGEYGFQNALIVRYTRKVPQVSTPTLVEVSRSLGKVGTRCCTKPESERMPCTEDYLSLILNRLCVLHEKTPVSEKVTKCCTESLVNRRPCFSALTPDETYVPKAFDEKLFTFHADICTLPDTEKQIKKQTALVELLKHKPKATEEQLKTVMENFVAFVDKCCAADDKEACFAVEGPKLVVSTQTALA

NUDT7 = target: T3, NUDT7 (Homo sapiens, UniProt P0C024); set-up: Intact protein LC/MS covalent labelling, fragments in pools of five, 200 uM each, 4 °C; settings: 24 h, 4 °C, pool of five; 200 µM; covalent
T3 construct: residues 14-235, E. coli, pNIC28-Bsa4, N-terminal His6 tag removed by TEV, construct 26672 Da
T3 sequence (P0C024 14-235): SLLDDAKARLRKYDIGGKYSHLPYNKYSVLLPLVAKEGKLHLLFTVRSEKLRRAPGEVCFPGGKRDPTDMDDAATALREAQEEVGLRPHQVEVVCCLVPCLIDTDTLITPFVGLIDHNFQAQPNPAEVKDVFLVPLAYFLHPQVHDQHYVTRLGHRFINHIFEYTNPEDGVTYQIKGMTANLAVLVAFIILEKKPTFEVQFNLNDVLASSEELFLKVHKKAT

PCAF = target: T4, PCAF (Homo sapiens, UniProt Q92831); set-up: Intact protein LC/MS covalent labelling, fragments in pools of five, 200 uM each, 4 °C; settings: 24 h, 4 °C, pool of five; 200 µM; covalent
T4 construct: gene KAT2B
T4 sequence (Q92831 whole entry, the tested form may be a part): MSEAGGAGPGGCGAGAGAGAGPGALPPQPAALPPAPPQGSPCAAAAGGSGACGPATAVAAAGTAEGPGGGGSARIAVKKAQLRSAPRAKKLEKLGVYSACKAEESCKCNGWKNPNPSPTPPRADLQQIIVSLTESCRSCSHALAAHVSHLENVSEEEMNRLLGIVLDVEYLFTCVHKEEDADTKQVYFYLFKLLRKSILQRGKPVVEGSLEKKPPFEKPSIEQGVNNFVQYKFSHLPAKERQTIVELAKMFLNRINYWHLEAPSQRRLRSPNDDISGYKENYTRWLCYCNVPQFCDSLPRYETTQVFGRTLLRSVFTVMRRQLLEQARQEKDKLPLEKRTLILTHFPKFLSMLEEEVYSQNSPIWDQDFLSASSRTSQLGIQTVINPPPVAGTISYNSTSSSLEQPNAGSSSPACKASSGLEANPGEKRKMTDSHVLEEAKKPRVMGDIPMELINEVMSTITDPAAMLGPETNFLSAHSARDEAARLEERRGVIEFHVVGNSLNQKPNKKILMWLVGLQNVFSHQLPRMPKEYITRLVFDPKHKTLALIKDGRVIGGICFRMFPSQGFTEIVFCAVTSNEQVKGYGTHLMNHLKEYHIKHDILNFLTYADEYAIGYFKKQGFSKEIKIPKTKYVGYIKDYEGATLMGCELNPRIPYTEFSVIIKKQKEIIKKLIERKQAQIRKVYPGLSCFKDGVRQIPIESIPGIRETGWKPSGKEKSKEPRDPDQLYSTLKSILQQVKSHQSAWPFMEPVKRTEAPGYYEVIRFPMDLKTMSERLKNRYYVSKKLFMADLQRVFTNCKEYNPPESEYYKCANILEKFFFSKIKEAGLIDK

in vitro [1] = test: in vitro; set-up: species or system HB2, CCD841; settings: human, hek293 cells
in vitro [2] = test: in vitro; set-up: species or system HB2, HEK293; settings: human, ccd841 cells
in vitro [3] = test: in vitro; set-up: species or system CCD841, HEK293; settings: human, hb2 cells, read-out: HB-2 Cells Viability (%)

Structure (SMILES)	OTUB2 (OTUB2 (OTUB2A))	BSA (BSA)	NUDT7 (NUDT7)	PCAF (PCAF)	viability at 48 h, 10 µM (in vitro [1]) [%]	viability at 48 h, 10 µM (in vitro [2]) [%]	viability at 48 h, 10 µM (in vitro [3]) [%]
O=C(CCl)Nc1ccc(Cl)cc1C(=O)O [PCM-0102127]	0.1	0	0	0	86.8	104	100
C=CC(=O)Nc1cccc(C#N)c1 [PCM-0102956]	0	0	0	0	74.5	102	104
C=CC(=O)N1CCC(N)CC1.Cl [PCM-0102844]	0	0	0.2	0.25	124	98.2	109
C=CC(=O)N1CC(C(=O)NC)C1 [PCM-0102843]	0.1	0.23	0	0	94.1	114	104
CC(=O)c1cc2c(cc1NC(=O)CCl)OCO2 [PCM-0103010]	0	0	0.14	0	69.5	86	59.9
CC1CCCC(NC(=O)NC(=O)CCl)C1C (stereo not drawn) [PCM-0102332]	0	0	0	0	52.5	71	48.7
Cc1ccc(S(=O)(=O)N2CCN(C(=O)CCl)CC2)c(C)c1 [PCM-0102628]	0	0	0	0	82.4	82.6	35.6
COc1cc(Cl)c(C)cc1NC(=O)CCl [PCM-0102210]	0.25	0	0	0	5.5	64.1	8.5
O=C(CCl)Nc1cc(Cl)ccc1F [PCM-0102762]	0.13	0	0	0	2.4	49.4	11.4
O=C(CCl)Nc1cccc(C(=O)O)c1 [PCM-0102696]	0.11	0	0	0	84.6	86.9	90.3
C=CC(=O)NC1(c2nnc[nH]2)CCC1 [PCM-0102722]	0	0	0	0	105	96.7	102
CC(=O)c1ccc(N2CCN(C(=O)CCl)CC2)c(F)c1 [PCM-0102273]	0	0	0.2	0	2.2	38.5	4.9
CNC(=O)CNC(=O)CCl [PCM-0102279]	0.1	0.09	0	0	112	97.3	108
Cc1c(C#N)c(NC(=O)CCl)n(-c2ccccc2)c1C [PCM-0102261]	0.09	0	0.3	0	7.8	75.1	42.5
CN(Cc1cnn(C)c1)C(=O)CCl.Cl [PCM-0102899]	0.26	0	0.08	0	70.7	91.9	101
CC(NC(=O)CCl)c1cccs1 (stereo not drawn) [PCM-0102180]	0.55	0.24	0.16	0	75.1	78.5	93.5
COC(=O)c1cccc(NC(=O)CCl)n1 [PCM-0102977]	0	0	0	0	105	101	103
Cl.O=C(CCl)N1CCN(Cc2cccc3ccccc23)CC1 [PCM-0102287]	0.29	0	0	0	19.9	21.7	9.4
CC(NC(=O)CCl)c1ccc(Cl)c(Cl)c1 (stereo not drawn) [PCM-0102096]	0.26	0	0.51	0	21.3	58.1	28.9
C=CC(=O)NC1CNC(=O)C1 (stereo not drawn) [PCM-0102882]	0	0	0	0	97.3	99.1	108
Cc1ccc(CN(C)C(=O)CCl)cc1 [PCM-0103017]	0	0	0.09	0	58.2	73.9	67.7
Cc1cc(NC(=O)CCl)no1 [PCM-0102500]	0.35	0	0	0	60.3	73.3	66.8
CNC(=O)C1CCN(C(=O)CCl)CC1 [PCM-0102815]	0.08	0	0	0	77.1	95.1	92.2
C=CC(=O)Nc1ccc(OC)c(F)c1 [PCM-0102995]	0	0	0	0	80.5	106	104
